Measured values from PubChem BioAssay AID292 (DTP/NCI, 2004).
Where “and” joins values, the source holds several entries; their conditions need not be identical. Identical values can stand only once. Toxic doses and inconclusive results are not listed.

Tested on: B6C3F1 mice, ip Sarcoma M5076, median survival T/C
Test: NCI In Vivo Anticancer Drug Screen. Data for tumor model Sarcoma M5076 (intraperitoneal) in B6C3F1 mice
Conditions: endpoint: median survival time, schedule: Q04DX004 (ip), higher = longer survival
In short: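 Transplantable tumour in mice; compound-treated vs vehicle-treated groups. Read-out: survival. Value = treated/control ratio.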

[1] = dose: 50.0 mg/kg/injection, vehicle: Klucel (hydroxypropylcellulose) (HPC)
[2] = dose: 100.0 mg/kg/injection, vehicle: Klucel (hydroxypropylcellulose) (HPC)
[3] = dose: 25.0 mg/kg/injection, vehicle: saline with Tween-80
[4] = dose: 50.0 mg/kg/injection, vehicle: saline with Tween-80
[5] = dose: 100.0 mg/kg/injection, vehicle: saline with Tween-80
[6] = dose: 200.0 mg/kg/injection, vehicle: saline with Tween-80
[7] = dose: 400.0 mg/kg/injection, vehicle: saline with Tween-80
[8] = dose: 800.0 mg/kg/injection, vehicle: saline with Tween-80
[9] = dose: 3.75 mg/kg/injection, vehicle: Klucel (hydroxypropylcellulose) (HPC)

For `CN(C)c1ccc2c(Nc3ccc(NS(C)(=O)=O)cc3)c3ccc(N(C)C)cc3nc2c1`, the T/C (dose: 21.6 mg/kg/injection, vehicle: Klucel (hydroxypropylcellulose) (HPC)) was 116 % of control, the T/C [1] was 151 % of control and the T/C [2] was 159 % of control. For the same compound, the T/C (dose: 166.7 mg/kg/injection, vehicle: Klucel (hydroxypropylcellulose) (HPC)) was 172 % of control.

In the case of `Cc1c(O)c(O)c(C)c(CCN)c1O`, the T/C (dose: 31.0 mg/kg/injection, vehicle: saline with Tween-80) is reported as 100 % of control, the T/C (dose: 62.0 mg/kg/injection, vehicle: saline with Tween-80) is reported as 104 % of control and the T/C (dose: 112.0 mg/kg/injection, vehicle: saline with Tween-80) is reported as 94 % of control.

With `O=[N+]([O-])c1ccc(C=C2C=CN(CCO)C=C2)cc1` the T/C [3] was 115 % of control, the T/C [4] was 115 % of control and the T/C [5] was 106 % of control.

In the case of `COc1cc2oc3c(C)c(=O)cc4oc(-c5ccccc5)cc(c2c2c1CCC(c1ccccc1)O2)c43` (stereo unspecified), the T/C (dose: 1.75 mg/kg/injection, vehicle: Klucel (hydroxypropylcellulose) (HPC)) is reported as 109 % of control, the T/C (dose: 3.5 mg/kg/injection, vehicle: Klucel (hydroxypropylcellulose) (HPC)) is reported as 102 % of control and the T/C (dose: 7.0 mg/kg/injection, vehicle: Klucel (hydroxypropylcellulose) (HPC)) is reported as 102 % of control. The T/C (dose: 12.5 mg/kg/injection, vehicle: saline with Tween-80) was 98 % of control, the T/C (dose: 14.0 mg/kg/injection, vehicle: Klucel (hydroxypropylcellulose) (HPC)) was 109 % of control and the T/C [3] was 98 % of control. The T/C (dose: 28.0 mg/kg/injection, vehicle: Klucel (hydroxypropylcellulose) (HPC)) was 97 % of control, the T/C [4] was 99 % of control and 100 % of control and the T/C [5] was 94 % of control and 96 % of control. The T/C [6] was 96 % of control and 103 % of control, the T/C [7] was 87 % of control and the T/C [8] was 110 % of control.

With `COC1C(O)CC(OC2CC(Oc3cc4cc5c(c(O)c4c(O)c3C)C(=O)[C@@H](OC3CC(OC4CC(OC6CC(C)(O)C(OC(C)=O)C(C)O6)C(O)C(C)O4)C(O)C(C)O3)[C@H]([C@H](OC)C(=O)[C@@H](O)[C@@H](C)O)C5)OC(C)C2OC(C)=O)OC1C` (stereo partly specified) the T/C (dose: 37.5 micrograms/kg/injection, vehicle: water) was 110 % of control and the T/C (dose: 75.0 micrograms/kg/injection, vehicle: water) was 111 % of control.

With `N[C@@H](C[C@H]1CCC(=O)[C@@H]2O[C@H]12)C(=O)O` the T/C (dose: 50.0 mg/kg/injection, vehicle: saline) was 97 % of control, the T/C (dose: 100.0 mg/kg/injection, vehicle: saline) was 106 % of control and the T/C (dose: 200.0 mg/kg/injection, vehicle: saline) was 117 % of control. For the same compound, the T/C (dose: 400.0 mg/kg/injection, vehicle: saline) was 115 % of control.

`Cc1c(N)nc([C@H](CC(N)=O)NC[C@H](N)C(N)=O)nc1C(=O)N[C@H](C(=O)N[C@H](C)[C@@H](O)[C@H](C)C(=O)N[C@H](C(=O)NCCc1nc(-c2nc(C(=O)NCCC[S+](C)C)cs2)cs1)[C@@H](C)O)C(OC1OC(CO)C(O)C(O)C1OC1OC(CO)C(O)C(OC(N)=O)C1O)c1cnc[nH]1` (stereo partly specified) was tested, and the T/C (dose: 5.0 mg/kg/injection, vehicle: saline) was 94 % of control, the T/C (dose: 10.0 mg/kg/injection, vehicle: saline) was 94 % of control and the T/C (dose: 20.0 mg/kg/injection, vehicle: saline) was 109 % of control. For the same compound, the T/C (dose: 40.0 mg/kg/injection, vehicle: saline) was 106 % of control.

`NC(=O)C1=NOC(C(N)=O)C1C1OC(CO)C(O)C1O` (stereo unspecified) was tested, and the T/C (dose: 37.5 mg/kg/injection, vehicle: water) was 100 % of control, the T/C (dose: 75.0 mg/kg/injection, vehicle: water) was 98 % of control and the T/C (dose: 150.0 mg/kg/injection, vehicle: water) was 103 % of control. The T/C (dose: 300.0 mg/kg/injection, vehicle: water) was 106 % of control and the T/C (dose: 600.0 mg/kg/injection, vehicle: water) was 100 % of control.

`NS(=O)(=O)OCCCCCCCOS(N)(=O)=O` was tested, and the T/C [3] was 124 % of control and the T/C [5] was 185 % of control.

`COc1cc(C(=O)c2cc3c(cc2C)OCO3)cc(OC)c1OC` was tested, and the T/C [9] was 97 % of control, the T/C (dose: 7.5 mg/kg/injection, vehicle: Klucel (hydroxypropylcellulose) (HPC)) was 109 % of control and the T/C (dose: 15.0 mg/kg/injection, vehicle: Klucel (hydroxypropylcellulose) (HPC)) was 104 % of control. For the same compound, the T/C (dose: 30.0 mg/kg/injection, vehicle: Klucel (hydroxypropylcellulose) (HPC)) was 105 % of control, the T/C (dose: 37.5 mg/kg/injection, vehicle: Klucel (hydroxypropylcellulose) (HPC)) was 110 % of control and the T/C (dose: 60.0 mg/kg/injection, vehicle: Klucel (hydroxypropylcellulose) (HPC)) was 100 % of control. The T/C (dose: 75.0 mg/kg/injection, vehicle: Klucel (hydroxypropylcellulose) (HPC)) was 108 % of control and 114 % of control, the T/C (dose: 150.0 mg/kg/injection, vehicle: Klucel (hydroxypropylcellulose) (HPC)) was 113 % of control and 116 % of control and the T/C (dose: 300.0 mg/kg/injection, vehicle: Klucel (hydroxypropylcellulose) (HPC)) was 107 % of control.

For `Nc1ncnc2c1ncn2C1CC2[O][Sn]([c]3ccccc3)([c]3ccccc3)[O]CC2O1` (stereo unspecified), the T/C (dose: 31.13 mg/kg/injection, vehicle: distilled water + Tween-80) was 95 % of control, the T/C (dose: 62.5 mg/kg/injection, vehicle: distilled water + Tween-80) was 92 % of control and the T/C (dose: 125.0 mg/kg/injection, vehicle: distilled water + Tween-80) was 101 % of control. The T/C (dose: 250.0 mg/kg/injection, vehicle: distilled water + Tween-80) was 101 % of control and the T/C (dose: 500.0 mg/kg/injection, vehicle: distilled water + Tween-80) was 104 % of control.

For `O=C1NC2(CN3CCC2CC3)C(=O)N1CN(Cc1ccccc1)c1ccccc1` (stereo unspecified), the T/C [4] was 97 % of control, the T/C [5] was 102 % of control and the T/C [6] was 93 % of control. The T/C [7] was 87 % of control and the T/C [8] was 90 % of control.

`CC1=CC(=NN=c2cc(C)n([O-])c(C)c2)C=C(C)[N+]1=O` was tested, and the T/C [5] was 122 % of control, the T/C [6] was 121 % of control and the T/C [7] was 98 % of control.

With `N=C(N)c1ccc(Nc2ccc(-c3cc4ccc(C(=N)N)cc4[nH]3)cc2)cc1` the T/C [9] was 115 % of control.

In the case of `N#CC1C(=O)NC(=S)NC1c1ccco1` (stereo unspecified), the T/C [1] is reported as 98 % of control and the T/C [2] is reported as 100 % of control.

For `C/C(=N\Nc1cc(C)nc2ccc(C)cc12)c1cn(C)n(-c2ccccc2)c1=O`, the T/C (dose: 31.25 mg/kg/injection, vehicle: Klucel (hydroxypropylcellulose) (HPC)) was 86 % of control.

With `O=CC(S)CO` (stereo unspecified) the T/C (dose: 25.0 mg/kg/injection, vehicle: suspension in saline) was 108 % of control, the T/C (dose: 50.0 mg/kg/injection, vehicle: suspension in saline) was 104 % of control and the T/C (dose: 200.0 mg/kg/injection, vehicle: suspension in saline) was 118 % of control. The T/C (dose: 400.0 mg/kg/injection, vehicle: suspension in saline) was 113 % of control.

In the case of `COc1cc2c(oc(=O)c3cc(C)cc(OC)c32)c2c(C3OC(C)C(O)C(C)(O)C3O)ccc(O)c12` (stereo unspecified), the T/C (dose: 3.12 mg/kg/injection, vehicle: DMSO) is reported as 106 % of control and 107 % of control, the T/C (dose: 6.25 mg/kg/injection, vehicle: DMSO) is reported as 101 % of control and 109 % of control and the T/C (dose: 12.5 mg/kg/injection, vehicle: DMSO) is reported as 101 % of control and 107 % of control. The T/C (dose: 25.0 mg/kg/injection, vehicle: DMSO) was 109 % of control and 112 % of control and the T/C (dose: 50.0 mg/kg/injection, vehicle: DMSO) was 103 % of control and 109 % of control.

`CC[C@@H](C)[C@H]([C@H](CC(=O)N1CCC[C@@H]1[C@@H](OC)[C@H](C)C(=O)N[C@H](Cc1ccccc1)c1nccs1)OC)N(C)C(=O)[C@H](NC(=O)[C@@H](C(C)C)N(C)C)C(C)C` was tested, and the T/C (dose: 8.0 micrograms/kg/injection, vehicle: saline + alcohol) was 153 % of control and the T/C (dose: 36.0 micrograms/kg/injection, vehicle: saline + alcohol) was 153 % of control.
